The source of these data is patent US5833994A, “Use of the AH receptor and AH receptor ligands to treat or prevent cytopathicity of viral infection” (Paracelsian, Inc., priority 1997, dated 1998).

Entries after “also recorded” stand apart in the source; their conditions may differ.

As a reminder, the IC50 is the point on the concentration scale where inhibition reaches its midpoint. A higher IC50 goes with a need for much substance. As a reminder, the EC50 is the concentration at which the effect is half-maximal.

Series [1] relates to transformed, cancerous cells. The following applies: cited from earlier work.
For series [2] the following is noted: high dosages over a prolonged period; cited from earlier work.
Series [3] concerns the target T1, Ah receptor (Cavia porcellus, UniProt Q6J287).
T1 sequence (Q6J287 1-846): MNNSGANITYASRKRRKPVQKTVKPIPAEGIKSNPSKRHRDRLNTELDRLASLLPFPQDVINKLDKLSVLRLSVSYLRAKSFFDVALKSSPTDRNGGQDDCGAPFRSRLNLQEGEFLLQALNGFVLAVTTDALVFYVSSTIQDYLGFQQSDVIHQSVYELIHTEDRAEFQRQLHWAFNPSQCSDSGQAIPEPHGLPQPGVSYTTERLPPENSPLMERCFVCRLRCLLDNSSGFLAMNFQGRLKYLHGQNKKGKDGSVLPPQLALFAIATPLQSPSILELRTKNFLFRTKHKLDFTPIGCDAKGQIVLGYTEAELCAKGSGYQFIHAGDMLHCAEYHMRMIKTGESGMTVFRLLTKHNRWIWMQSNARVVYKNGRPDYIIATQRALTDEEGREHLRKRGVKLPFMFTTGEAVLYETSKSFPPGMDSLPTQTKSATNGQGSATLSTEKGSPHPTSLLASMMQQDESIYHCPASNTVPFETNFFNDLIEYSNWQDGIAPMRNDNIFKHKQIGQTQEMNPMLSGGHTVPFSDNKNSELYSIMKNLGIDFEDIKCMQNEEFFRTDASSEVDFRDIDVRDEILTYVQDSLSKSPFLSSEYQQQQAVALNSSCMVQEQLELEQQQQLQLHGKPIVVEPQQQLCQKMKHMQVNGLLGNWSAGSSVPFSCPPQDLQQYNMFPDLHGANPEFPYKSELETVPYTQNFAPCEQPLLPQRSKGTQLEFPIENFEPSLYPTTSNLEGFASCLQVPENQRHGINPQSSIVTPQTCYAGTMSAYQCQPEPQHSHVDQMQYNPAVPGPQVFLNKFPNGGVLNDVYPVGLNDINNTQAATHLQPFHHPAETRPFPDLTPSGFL
As to the kind of experiment: Inhibition of Ah receptor transformation, antagonist test (Ah-immunoassay, 0.5 nM TCDD).
Procedure: Cytosol was prepared as described in methods and treated with TCDD, DMSO or TCM extract to make 1) 0.5 nM TCDD, 2) 0.1% DMSO, or 3) 500 μg/mL TCM extract, respectively. The treated cytosol was serially diluted in a neutravidin-coated ELISA plate (Pierce, Rockford, Ill.). […] To treat for Ah receptor agonist activity, extracts were diluted in 0.5 nM TCDD treated cytosol to 250, 125, and 62.5 μg/mL of TCM extracts.
Ten mL aliquots of cytosol were thawed and pooled, generally 20 mL per ELISA plate. For each 20 mL of cytosol, 10 μL of thawed DRE stock and 1 mL HEDG in 4M NaCl were added.
0.5 nM TCDD Diluent for extracts (detection of antagonists): The cytosol is treated with 1 μl of 1 μM TCDD per 2 mL cytosol (0.5 nm).
500 μg/mL extracts (detection of antagonists): 1 μL of test extract (500 mg/mL in DMSO) in 1 mL 0.5 nM TCDD-treated cytosol (500 μg/mL final concentration of extract in cytosol).
Serial dilution's of the extracts and/or TCDD treated cytosol into DMSO-treated cytosol are done as required by the experiment and are described in the examples.
The ELISA plate containing the treated cytosol is incubated with gentle rocking for 2 hours at 30° C. to allow the transformation of Ah receptor, binding of Ah receptor with ARNT, and binding of the Ah receptor/ARNT complex to the biotinylated DRE, and binding of the biotinylated DRE to the neutravidin bound to the ELISA plate.
After 2 hours the plate is washed 3 times with 400 μL TBS plus 0.02% Tween 20 per well per wash and 200 μL of the working dilution of anti-ARNT added to all wells. The plate is again incubated with gentle rocking at 30° C. for 1 hour. After 1 hour the plate is washed as before and a working dilution (1:4000) of anti-rabbit/alkaline phosphatase conjugate is added to all wells. The plate is incubated for a further 1 hour at 30° C. with gentle rocking and then washed as before. PNPP stock is added to each well (200 μL) and the plate is incubated for 1 hour at 30° C., at which time it is read at 405 nm in an ELISA plate reader and the milli O.D.'s of the wells are recorded.
TCM extracts were tested for their ability to inhibit the transformation of the Ah receptor.

In series [4] the test system is HIV envelope gp120/41-induced syncytia formation in CD4+T cell lines (HIVenv 2-8 co-culture). Briefly: Inhibition of HIVenv 2-8-induced syncytia formation / cell death (HIV-1 co-culture assay). The class given is cell-based. To be noted: for Estimated IC50 (Syncitia Quantification), inhibition of HIV-induced cytopathicity: Table 1. How it is done:
Sourcing of Ah Receptor Ligands: The Ah receptor ligands 2,3,7,8-Tetrachlorodibenzo-p-dioxin, 3,3',4,4',5-Pentachlorobiphenyl, 3,3',4,'4-Tetrachlorobiphenyl, and 2-Monochlorodibenzo-p-dioxin compounds were purchased from Accustandard (Cambridge, Mass.). α-naphthoflavone was purchased from Sigma (St. Louis, Mo.). Stock solutions of each compound were prepared by dissolution in DMSO at a 1000X concentration, i.e. the highest concentration tested was diluted by 1000-fold.
Bioassay Procedure: The cell lines utilized in the assay protocol include the following: HIVenv 2-2 (non-cytopathic), HIVenv 2-8 (cytopathic), Jurkat CD4+T cell line (clone E6-1), and SupT1. Cell lines were cultured in RPMI medium (Gibco, Grand Island, N.Y.) supplemented with L-glutamine (Sigma, St. Louis, Mo.) and 10% FBS-HI (Intergen). The Jurkat CD4+T cell line was obtained from American Type Culture Collection (Bethesda, Md.). All other cell lines were obtained from the National Institutes of Health. The HIVenv 2-2 or HIVenv 2-8 cells were plated with both CD4+T cell lines (1×10^3 cells per cell line in 16 μL of media.) in a 96-well tissue culture plate containing 50 μL of media with compound to be tested yielding a final volume of approximately 100 μL. The plates were then gently shaken to ensure adequate mixing of the assay components. Cells were then co-cultured at 5% CO2, 37C., and 95% humidity for 24 to 48 hours. The time points were chosen for the convenience, cytopathic changes become evident in the cell cultures used within a 2 to 4 hour period, becoming more and more prominent with time.
Data Reduction for this ELISA: HIVenv 2-2 co-culture ELISA values are used as the background for HIVenv 2-8 co-culture values. Dose responses are then plotted with dose along the x-axis and the background corrected optical density values on the y-axis.
Positive and Negative Controls: The use of the HIVenv 2-2 cell line serves as a negative control for induction of cytopathicity.
Interpretation of the Test: A positive response was defined as a dose-related decrease in syncytia formation in excess of 50% compared to HIVenv 2-8 co-cultures alone. Calculation of median effective doses was estimated by visual observation and by quantification of syncitia in 10X power microscope fields.
The Materials and Methods used in the testing of the various dibenzofuran compounds were the same as those used in Example 1 above. This includes the use of the same controls, cell lines, and assay procedures.
Interpretation of the Test: A positive response was defined as a dose-related decrease in syncytia formation in excess of 50% compared to HIVenv 2-8 co-cultures alone. Calculation of median effective doses was estimated by visual observation and by quantification of syncitia in 10X power microscope fields. Another procedure which provides data similar to the Bioassay procedure just described allows for quantification of changes in the co-culture cells through an ELISA method, not as reliant on visual observation. […]

In series [5] the test system is Cyclin B. As to the kind of experiment: Inhibition of cyclin B overexpression (cyclin B ELISA; FIGS. 2 and 3). The class given is cell-based. To be noted: FIG. 2 / FIG. 3. How it is done:
Cyclin B ELISA procedure: The overexpression Cyclin B has become associated with HIVenv 2-8 cytopathicity. This biochemical response and it's inhibition by Ah receptor ligands has been assayed by ELISA. Following 24 hours of co-culture in 96 well microtiter tissue culture plates, the cells are washed 1X with PBS buffer and then lysed with 50 μL lysis buffer (50 mM Tris, […], 10% glycerol, 1% NP-40) with shaking at 4° C. for 30 minutes. Thirty microliters of the cell lysate were then transferred into Immulon 4™ ELISA strip plates and 70 μL of coating buffer (0.2M Borate pH 10.5) added to bring the final microtiter well volume to 100 μL The plates were then incubated at 37° C. for 1 hour to allow for coating. The plates are then washed 3X with 300 μl TBST (20 mM Tris, 150 mM NaCl, 0.05% Tween 20, pH 7.5), incubated with 125 μL of blocking solution for 5 minutes, washed 3X, incubated with horseradish peroxidase labeled anti-mouse IgG for 1 hour at room temperature, washed 3X, and then incubated with 100 μL TMB substrate for 30 minutes at room temperature. Stop solution (2.5M sulfuric acid, 100 μL) was then added to prevent further color development and the plate was read at an optical density of 450 nm.
Data Reduction for this ELISA: HIVenv 2-2 co-culture ELISA values are used as the background for HIVenv 2-8 co-culture values. […]
A general note: An ELISA detects its analyte on a solid surface through an enzyme-linked reagent.

For series [6], the system named is Ah receptor. To be noted: literature; cited from earlier work.
For series [7], the target named is T1, Ah receptor. Briefly: Ah receptor transformation, agonist test (Ah-immunoassay, absence of TCDD). The class given is biochemical, Guinea pig. How it is done:
Cytosol was prepared as described above.
Diluent for TCDD dose response, diluent for extracts (detection of agonists), and negative control: The cytosol is treated with 1 μL DMSO per 1 mL cytosol (-).
1 nM TCDD treated, positive control. […] DMSO diluent for detection of agonists: the cytosol is treated with μL DMSO per 1 mL cytosol. (1 nm final concentration of TCDD).

Series [8] deals with Cyclin B. Briefly: Inhibition of cyclin B overexpression, western blot densitometry. The class given is cell-based. To be noted: TCDD, 10 nM; mean ± standard error, n=5 or 6; 2-8 co-culture 61.88, 2-2 co-culture 10.14. How it is done:
(§1) The expression of the protein kinase c-Mos was induced in addition to alterations in cell cycle (CDK1, cyclin B) and apoptotic (Bcl-2 and Bax) protein concentrations and phosphorylation status. CDK1 became hyperphosphorylated whereas cyclin B, Bcl-2, and Bax expression were elevated. Assay for these biochemical changes was performed by western blot analysis using equal amounts of cell lysate proteins derived from cells cultured with the respective Ah receptor ligands. Responses were quantified by scanning densitometry.
(§2) Data from Table 2 represents the mean ± standard error of scanning densitometric units (n=5 or 6 individual scans from separate experiments).Doses used were as follows: TCDD, 10 nM; Substituted Furans (6-nitro 1,3,8-trichlorodibenzofuran; 6-isopropyl, 1,3,8-trichlorodibenzofuran; 6-methyl, 1,3,8-trichlorodibenzofuran; 1-bromo, 6-methyl, 3,8-dichlorodibenzofuran), 2 μM. All four alkyl substituted furan compounds that were tested yielded approximately equivalent responses so their responses were combined.
Background: In western blotting, separated proteins are transferred to a membrane and probed.

Another series relates to CDK1. Briefly: Inhibition of CDK1 hyperphosphorylation, western blot densitometry. The class given is cell-based. To be noted: TCDD, 10 nM; mean ± standard error, n=5 or 6; 2-8 co-culture 44.27, 2-2 co-culture 10.41. How it is done:
as §1, §2

In the case of `O=c1c(O)c(-c2ccc(O)c(O)c2)oc2cc(O)cc(O)c12` [Quercetin], in [1], the “anti-proliferative effect” value is “anti-proliferative effect on those transformed, cancerous cells”. The “genotoxicity / carcinogenic activity” value in [2] was “genotoxic compound, that may initiate carcinogenic activity in certain tissues”. For the same compound, the IC50 at Ah receptor [3] was ~9930 nM. For the same compound, the “inhibition of Ah receptor transformation / antagonist activity (words)” value at Ah receptor [3] (0.5 nM TCDD) is given as “does present antagonistic activity towards the Ah receptor”; against Ah receptor [3] (0.5 nM TCDD, listed as quercetin), “antagonistic activity towards the Ah receptor at all doses tried”. In addition, the “Quercetin interaction with the Ah receptor, Milli O.D. Reading” value on Ah receptor [3] (Table 12, 2.5 μg/mL) turned out to be 480 Milli O.D; at Ah receptor [3] (Table 12, 5 μg/mL), 320 Milli O.D; at Ah receptor [3] (Table 12, 10 μg/mL) it was 260 Milli O.D; at Ah receptor [3] (Table 12, 20 μg/mL), 210 Milli O.D.

Take `COC1C=CC=C(C)C(=O)NC2=CC(=O)C=C(C2=O)C(OC)C(C)CC(OC)C(OC)C(C)C=C(C)C1OC(N)=O` (centres unmarked) [Herbimycin A, herbimycin A]: in series [4], the “inhibition of syncytia formation / cytopathicity” value is recorded as “block the HIVenv 2-8 induced cytopathic effect” and the “Estimated IC50 (Syncitia Quantification), inhibition of HIV-induced cytopathicity” value was 750 nM. Besides, in [4] (Table 1, positive control), the “Estimated IC50 (Syncitia Quantification), inhibition of HIV-induced cytopathicity, second value in brackets” value was 430 nM. Besides, the “inhibition of cyclin B overexpression (figure legend)” value in the series with Cyclin B [5] was “inhibition of cyclin B overexpression”.

Take `O=c1cc(-c2ccccc2)oc2c1ccc1ccccc12` [α-naphthoflavone]: in series [4], the “inhibition of syncytia formation / cytopathicity” value is listed as “correspondingly weaker activity; also recorded: also effective at inhibiting syncytia formation” and the “Estimated IC50 (Syncitia Quantification), inhibition of HIV-induced cytopathicity” value is given as 350 nM. Also, the “known Ah receptor agonism/antagonism” value with Ah receptor [6] is “known partial agonist and antagonist of the Ah receptor; also recorded: described to act as an Ah receptor antagonist by inhibiting TCDD-induced Ah receptor transformation to a DNA binding form”. Further, on Ah receptor [7] (absence of TCDD), the “ability to transform the Ah receptor / agonist activity” value is “very weak agonist of the Ah receptor; also recorded: did not reach the EC50 of TCDD”. Further, at Ah receptor [3] (0.5 nM TCDD), the “IC50, inhibition of Ah receptor transformation (estimated)” value is 18600 nM and the “inhibition of Ah receptor transformation / antagonist activity (words)” value is recorded as “more potent antagonist of the Ah receptor”.

For the compound `Clc1cc2c(cc1Cl)Oc1cc(Cl)c(Cl)cc1O2` [2,3,7,8-TCDD, 2,3,7,8-Tetrachlorodibenzo-p-dioxin], in series [4], the “inhibition of syncytia formation / cytopathicity” value was “most effective compound and strongest Ah receptor agonist”; the “Estimated IC50 (Syncitia Quantification), inhibition of HIV-induced cytopathicity” value is recorded as 2 nM. The “Cyclin B (inhibition of cyclin B overexpression)” value in the series on Cyclin B [8] is 9.32 ± 2.7 scanning densitometric units. In addition, the half-maximal effective concentration (EC50) at Ah receptor [7] was found to be 0.5 nM. At Ah receptor [7] (Table 12 footnote, .5 nM TCDD, BG subtracted, read at 450 nm), the “Milli O.D. of TCDD control” value is given as 850 Milli O.D. Also, the “CDK1 Phosphorylation” value in the series with CDK1 is recorded as 11.13 ± 3.3 scanning densitometric units. The “inhibition of cyclin B overexpression (figure legend)” value with Cyclin B [5] is recorded as “inhibition of cyclin B overexpression”.
